Series [1] has as its system Aβ1-42. The series can be described thus: Aβ1-42 content in conditioned medium of primary cortico-hippocampal neuron cultures from Tg2576 mice (ELISA; primary and secondary dose-response screening). The format is cell-based, mouse. Particulars: for activity at 100 µM: Mus musculus, Neuron, 24 h, read-out: Ab1-42 (% of ctl); for activity at 100 µM / Ab1-42 (% of ctl): drug 100 μM. How it is done: (§1) Potential Aβ-lowering activity was assessed for 150 commercially available cardiovascular drugs using primary cortico-hippocampal neuron cultures derived from embryonic Tg2576 (El 6). […] All cardiovascular reagents were obtained from MicroSource Discovery Systems Inc (Gaylordsville, Conn.). […] Individual cardiovascular agents were applied directly to the culture medium (final 1% DMSO in the culture media). In control studies, parallel Tg2576 primary neuron cultures were treated with vehicle (1% DMSO) alone. The influence of drug treatments in Aβ content in the conditioned medium in treated cultures was assessed by assessing steady state levels of Aβ1-40 and Aβ1-42 in the culture media 24 hours after treatment.
(§2) Embryonic brain tissue was mechanically triturated and centrifuged. Neurons were seeded onto poly-D-lysine-coated 96-well plates at 1.0×10^5 cells per well and cultured in the serum-free chemically-defined medium Neurobasal, supplemented with 2% B27, 0.5 mM L-glutamine and 1% penicillin-streptomycin (Gibco-BRL).
(§3) For primary screening, cultured neurons were treated with 100 μM of drug in duplicates for 16 hours; all drugs were obtained in stock from MicroSource Discovery Systems Inc (Gaylordsville, Conn.). Conditioned medium was collected for Aβ detection using commercially available ELISA kits (BioSource). […] Primary neurons prepared in 96-well plates were treated with 0.1 μM, 1 μM, 10 μM, 50 μM, and 100 μM of each drug in duplicate for ˜16 hours and conditioned medium was collected for Aβ detection.

The test system of series [2] is primary cortico-hippocampal neuron cultures. The series can be described thus: MTT in primary screening.
Series [3] has the same test system. The series can be described thus: lactate dehydrogenase (LDH) activity assay in parallel neuron cultures.
Description: For in vitro treatments drugs available from “The Spectrum Collection” in stocks of 10 mM in DMSO were applied directly to cultures to the desired concentrations (final 1% DMSO); control primary neuron cultures from Tg2576 embryos were treated with vehicle resulting in a final 1% DMSO.
Cell viability was assessed using a commercial available LDH assay kit according to the manufacture's instruction (Promega).
In series [4] the test system is Aβ1-40. In words: Aβ1-40 content in conditioned medium of primary cortico-hippocampal neuron cultures from Tg2576 mice (ELISA; primary and secondary dose-response screening). It is filed as cell-based, mouse. Particulars: drug 100 μM; for activity at 100 µM: Mus musculus, Neuron, 24 h, read-out: Ab1-40 (% of ctl). How it is done: as §1, §2, §3
Setting [5] is: Primary Screening, table sorted by Aβ1-40.
Setting [6] is: primary screening, Tg2576 neuron cultures, table sorted by Aβ1-42.
The mark [7] stands for this setting: primary screening, table sorted by Aβ1-42.

Where a name gives a salt, the structure may show the parent alone. Read-outs that look alike come from different tables or passages of the source.

As to `CCOC(=O)[C@H](CCc1ccccc1)N[C@@H](C)C(=O)N1CCC[C@H]1C(=O)O` [Enalapril Maleate], the activity at 100 µM in series [1] (setting [5]) is 97.6%; in series [1] (setting [6]), 97.6%; in series [4] (setting [5]), 101%; in series [4] (setting [6]) it was 101%. Besides, the “MTT (% of ctl)” value in series [2] (setting [5]) and in series [2] (setting [7]) was 126.4 % of ctl throughout. For the same molecule, the “LDH (% of ctl)” value in series [3] (setting [5]) and in series [3] (setting [7]) was 118.9 % of ctl each time.

As for `Nc1nc(N)c2nc(-c3ccccc3)c(N)nc2n1` [Triamterene], the activity at 100 µM in series [1] (setting [5]) is 64.2%; in series [1] (setting [6]), 64.2%; in series [4] (setting [5]) it was 85.1%; in series [4] (setting [6]) it was 85.1%. The “reducing Aβ1-42” value in series [1] (primary screening, <85% of ctl) was “useful in reducing Aβ1-42”. Moreover, the “MTT (% of ctl)” value in series [2] (setting [5]) and in series [2] (setting [7]) was 93.8 % of ctl each time. Besides, the “LDH (% of ctl)” value in series [3] (setting [5]) and in series [3] (setting [7]) was 103.3 % of ctl each time.

`CC(=O)CCCCn1c(=O)c2c(ncn2C)n(C)c1=O` [Pentoxifylline]: the activity at 100 µM in series [1] (setting [5]) turned out to be 109%; in series [1] (setting [6]), 109%; in series [4] (setting [5]), 97.1%; in series [4] (setting [6]), 97.1%. For the same molecule, the “MTT (% of ctl)” value in series [2] (setting [5]) and in series [2] (setting [7]) was 91.1 % of ctl in each case. Besides, the “LDH (% of ctl)” value in series [3] (setting [5]) and in series [3] (setting [7]) was 132.4 % of ctl in each case.

Take `NS(=O)(=O)c1cc2c(cc1Cl)N=CNS2(=O)=O` [Chlorothiazide]: the activity at 100 µM in series [1] (setting [5]) is 104%; in series [1] (setting [6]) it was 104%; in series [4] (setting [5]) it was 107%; in series [4] (setting [6]), 107%. In addition, the “MTT (% of ctl)” value in series [2] (setting [5]) and in series [2] (setting [7]) was 99.4 % of ctl in each case. The “LDH (% of ctl)” value in series [3] (setting [5]) and in series [3] (setting [7]) was 110.3 % of ctl throughout.

For `CCOC(=O)[C@H](CCc1ccccc1)N[C@@H](C)C(=O)N1[C@H](C(=O)O)C[C@H]2CCCC[C@@H]21` [Trandolapril], the activity at 100 µM in series [1] (setting [5]) came out at 111%; in series [1] (setting [6]) it was 111%; in series [4] (setting [5]), 137%; in series [4] (setting [6]), 137%. The “MTT (% of ctl)” value in series [2] (setting [5]) and in series [2] (setting [7]) was 91.5 % of ctl in each case. Besides, the “LDH (% of ctl)” value in series [3] (setting [5]) and in series [3] (setting [7]) was 95.5 % of ctl in each case.

Take `COc1ccc2c(c1OC)C(=O)O[C@H]2[C@@H]1c2cc3c(cc2CCN1C)OCO3` [1S,9R-Beta-HYDRASTINE]: the “Ab1-42 (% of ctl)” value in series [1] (setting [5]) and in series [1] (setting [6]) was 123.6 % of ctl throughout. For the same molecule, the “MTT (% of ctl)” value in series [2] (setting [5]) and in series [2] (setting [7]) was 101.1 % of ctl throughout. Moreover, the “LDH (% of ctl)” value in series [3] (setting [5]) and in series [3] (setting [7]) was 114.2 % of ctl in each case. For the same molecule, the “Ab1-40 (% of ctl)” value in series [4] (setting [5]) and in series [4] (setting [6]) was 114.5 % of ctl in each case.

Consider `CC1Cc2ccccc2N1NC(=O)c1ccc(Cl)c(S(N)(=O)=O)c1` (stereo not drawn) [Indapamide], for which the activity at 100 µM was determined as 91.3% in series [1] (setting [5]), 91.3% in series [1] (setting [6]), 107% in series [4] (setting [5]) and 107% in series [4] (setting [6]). Further, the “MTT (% of ctl)” value in series [2] (setting [5]) and in series [2] (setting [7]) was 104.2 % of ctl each time. The “LDH (% of ctl)” value in series [3] (setting [5]) and in series [3] (setting [7]) was 85.3 % of ctl in each case.
